# Measurements taken from paper PMC3495945, “Org 214007-0: A Novel Non-Steroidal Selective Glucocorticoid Receptor Modulator with Full Anti-Inflammatory Properties and Improved Therapeutic Index” (PLoS ONE, 2012).
# pEC50: −log10 of the molar value. Read-outs that look alike come from different tables or passages of the source.
# Legend:
# THP-1 cells [1] = experiment: Gene expression profiling (microarray) in THP-1 cells; type: cell-based, human; conditions: THP-1, 1 μM, 6 hours, top 25 genes, prednisolone set at 100%; for Max. eff., mean repression of genes, microarray: IFNγ/TNFα; for Max. eff., mean induction of genes, microarray: non-stimulated
# Protocol: (§1) THP-1 cells were incubated with glucocorticoid in the presence of either DMSO (control) or IFNγ/TNFα (220 ng/ml/375 ng/ml). After 6 hours total RNA was isolated and further processed for microarray hybridization as described for the HepG2 cells. The data from all microarray experiments have been deposited in the NCBI Gene Expression Omnibus (GEO) under accession number (identifier will be included in proof). […] Expression of FKBP51, MCP-1, IL-6 and IL-8 protein was measured by specific […]; #A[…] [MCP-1], #A[…] [IL-6] and #A[…] [IL-8]) according to the manufacturer manual. […] Expression of FKBP51, DUSP1 and GILZ was measured by Q-PCR according to the same procedure as described for the HepG2 cells. In this case the following primer-pairs were used: for GAPDH: [NT] and [NT]; for FKBP51: [NT] and [NT]; for DUSP1: [NT] and [NT]; for GILZ: [NT] and [NT]. For the evaluation of protein expression, cells were incubated overnight with a whole dose range of compounds. Supernatants were collected to determine cytokine levels and cell lysates were generated by repeated freeze-thaw cycles to measure expression of FKBP51 protein. Expression of FKBP51, MCP-1, IL-6 and IL-8 was measured by specific […]; #A[…] [MCP-1], #A[…] [IL-6] and #A[…] [IL-8]) according to the manufacturer manual. […] Samples were incubated for 60 min at 23 C. […] Plates were measured using an EnVision-Alpha Reader.
# THP-1 cells [2] = experiment: THP-1 induction of FKBP51, GILZ, DUSP1; type: cell-based, human; conditions: for pEC50: Homo sapiens, THP-1, no stimulus; for Max. eff., DUSP1 induction / Max. eff., FKBP51 induction / Max. eff., GILZ induction: THP-1, prednisolone = 100%
# Protocol: as §1
# LPS-induced TNFα release = experiment: LPS-induced TNFα acute inflammation mouse model; type: in vivo; conditions: oral; for ED50: Mus musculus, 1 hour before LPS i.p., Balb/c mice, read-out: ED50, inhibition of LPS-induced serum TNFα
# Protocol: For both the LPS-induced TNFα as well as the anti-CD3 induced IL-2 model, female Balb/c mice of 8–12 week old were used. Mice were treated orally with 0.2 ml compound or vehicle (water/mannitol (5%) with 5% DMSO/5% chremophore for the LPS model or with 0.5% gelatine for the anti-CD3 model). One hour after oral treatment animals were challenged i.p. with 0.2 ml of either 20 μg/mouse LPS (Sigma, E. coli serotype 055:B5) or 5 µg/mouse hamster anti-CD3 monoclonal (BD Biosciences Pharmingen, art. nr. 553057, clone 145-2C11). Ninety minutes after LPS injection or 3 hours after anti-CD3 challenge, blood samples were collected and serum levels of TNFα or IL-2 were determined via specific ELISAs (BD Biosciences Pharmingen, San Diego, CA, USA). In the experiment that included treatment with RU486 to block GR, mice were dosed subcutaneously with 50 mg/kg RU486 30 minutes before the oral compound dosing. ED50 and % efficacy (maximal percentage inhibition of TNFα or IL-2 release) are determined using a 3 parameter sigmoidal curve calculation. Statistical analysis of the results was performed using an one-way ANOVA (log) test.
# GR = molecular target: T1, GR (Homo sapiens, UniProt P04150); experiment: ChIP-Seq analysis of GR binding to DNA in THP-1 cells; type: cell-based; design: endogenous in cells; host or cells: THP-1; conditions: for number of ChIP-Seq clusters compared to vehicle: THP-1, 1 μM, 1 hour
# T1 sequence (P04150 1-777): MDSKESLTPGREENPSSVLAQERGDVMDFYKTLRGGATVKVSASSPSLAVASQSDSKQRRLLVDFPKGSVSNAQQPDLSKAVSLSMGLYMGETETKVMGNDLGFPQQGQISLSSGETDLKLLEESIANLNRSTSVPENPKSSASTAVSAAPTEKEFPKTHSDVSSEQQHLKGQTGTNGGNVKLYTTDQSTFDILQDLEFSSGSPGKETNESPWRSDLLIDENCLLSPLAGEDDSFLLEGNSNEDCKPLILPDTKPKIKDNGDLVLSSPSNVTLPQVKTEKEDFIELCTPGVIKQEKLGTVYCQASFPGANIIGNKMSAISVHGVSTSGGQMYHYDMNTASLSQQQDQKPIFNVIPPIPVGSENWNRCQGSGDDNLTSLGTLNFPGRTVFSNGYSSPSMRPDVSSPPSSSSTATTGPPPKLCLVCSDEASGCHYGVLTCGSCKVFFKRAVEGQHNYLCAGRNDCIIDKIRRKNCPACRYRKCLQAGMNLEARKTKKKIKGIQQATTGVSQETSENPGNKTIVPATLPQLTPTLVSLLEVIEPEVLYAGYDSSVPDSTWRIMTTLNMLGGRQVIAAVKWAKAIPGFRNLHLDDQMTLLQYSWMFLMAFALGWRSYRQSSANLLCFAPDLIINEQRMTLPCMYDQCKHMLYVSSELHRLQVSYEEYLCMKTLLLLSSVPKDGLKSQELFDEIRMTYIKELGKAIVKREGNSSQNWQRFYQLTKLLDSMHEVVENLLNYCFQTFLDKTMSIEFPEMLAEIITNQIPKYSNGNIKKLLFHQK
# Protocol: From the THP-1 samples that were used for gene expression analysis after 6 hours, samples were drawn after 1 hour and used for ChIP–Seq analysis at Genpathway (Carlsbad, CA). For precipitation of genomic DNA regions antibody against GR (Santa Cruz sc-8992) was used. Details are provided in SI text. The obtained amplified DNA libraries were sent to Illumina Sequencing Services (San Diego, CA) for sequencing on a Genome Analyzer II. Sequence files were analyzed with the Genomatix Genome Analyzer Workbench from Genomatix (Genomatix Software GmbH, Munich). Sequences were clustered using default parameter settings and aligned against the human genome version GRCh37/hg19. Clusters were merged using the Replicate Analysis module from the Workbench package (more detailed information in SI text).
# Cells were fixed with 1% formaldehyde for 15 min and quenched with 0.125 M glycine. Chromatin was isolated by adding lysis buffer, followed by disruption with a Dounce homogenizer (cells) or motor pestle (tissue). Lysates were sonicated and the DNA sheared to an average length of 300-500 bp. Genomic DNA (Input) was prepared by treating aliquots of chromatin with RNase, proteinase K and heat for de-crosslinking, followed by ethanol precipitation. Pellets were resuspended and the resulting DNA was quantified on a NanoDrop spectrophotometer. Extrapolation to the original chromatin volume allowed quantitation of the total chromatin yield.
# An aliquot of chromatin (28.5 ug) was precleared with protein A agarose beads (Invitrogen). Genomic DNA regions of interest were isolated using 4 ug antibody against GR (Santa Cruz sc-8992). Complexes were washed, eluted from the beads with SDS buffer, and subjected to RNase and proteinase K treatment. Crosslinks were reversed by incubation overnight at 65 C, and ChIP DNA was purified by phenol-chloroform extraction and ethanol precipitation.
# [3] = read-out: EC50, DUSP1 induction
# [4] = read-out: EC50, FKBP51 induction
SMILES,"Max. eff., mean repression of genes, microarray (THP-1 cells [1])","Max. eff., mean induction of genes, microarray (THP-1 cells [1]; listed as Org)",pEC50 (THP-1 cells [2]; [3]),pEC50 (THP-1 cells [2]; [4]),"pEC50 (THP-1 cells [2]; read-out: EC50, GILZ induction)","Max. eff., DUSP1 induction (THP-1 cells [2])","Max. eff., FKBP51 induction (THP-1 cells [2])","Max. eff., GILZ induction (THP-1 cells [2])",ED50 (LPS-induced TNFα release),"maximal efficacy, inhibition of LPS-induced TNFα release (LPS-induced TNFα release)",number of ChIP-Seq clusters compared to vehicle (GR; inflammatory condition),number of ChIP-Seq clusters compared to vehicle (GR; non-stimulated condition),"binding sites also contained within the prednisolone set (GR; non-stimulated, 2080 vs 9413 sites)","Max. eff., mean induction of genes, microarray (THP-1 cells [1])"
Cc1nnsc1C(=O)N[C@H]1CCN2c3ccc(C#N)cc3[C@@H](C)c3ccccc3[C@@H]2C1 [Org 214007-0],48.3%,18.9%,8.19,8.10,7.86,41 (±6) %,42 (±8) %,13 (±5) %,0.5 mg/kg,90%,2502,2080,99.5%,–
"C[C@]12C=CC(=O)C=C1CC[C@@H]1[C@@H]2[C@@H](O)C[C@@]2(C)[C@H]1CC[C@]2(O)C(=O)CO [prednisolone, reference compound]",100%,–,7.17,7.18,7.22,100%,100%,100%,1 mg/kg,–,3471,9413,–,100%
